PubChem BioAssay (NCI)
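Following 48 hours of exposure in 96-well plates, responses at five concentrations were used to interpolate endpoints linearly. TGI marks complete inhibition of growth.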

What was measured:
Assay in all cases: growth of human tumour cells (NCI), 48 h
COLO 205 colon = system: COLO 205 colon
HL-60(TB) leukemia = system: HL-60(TB) leukemia
HOP-62 NSCLC = system: HOP-62 NSCLC
HOP-92 NSCLC = system: HOP-92 NSCLC
HT29 colon = system: HT29 colon
K-562 leukemia = system: K-562 leukemia
MCF7 breast = system: MCF7 breast
MDA-MB-231 breast = system: MDA-MB-231 breast
NCI-H23 lung = system: NCI-H23 lung
NCI/ADR-RES ovarian = system: NCI/ADR-RES ovarian
OVCAR-5 ovarian = system: OVCAR-5 ovarian
OVCAR-8 ovarian = system: OVCAR-8 ovarian
SF-268 CNS = system: SF-268 CNS
SF-295 CNS = system: SF-295 CNS
SK-MEL-5 melanoma = system: SK-MEL-5 melanoma
SK-OV-3 ovarian = system: SK-OV-3 ovarian
SNB-19 CNS = system: SNB-19 CNS
SR leukemia = system: SR leukemia
TK-10 renal = system: TK-10 renal
UACC-62 melanoma = system: UACC-62 melanoma

SMILES | TGI (COLO 205 colon) | TGI (HL-60(TB) leukemia) | TGI (HOP-62 NSCLC) | TGI (HOP-92 NSCLC) | TGI (HT29 colon) | TGI (K-562 leukemia) | TGI (MCF7 breast) | TGI (MDA-MB-231 breast) | TGI (NCI-H23 lung) | TGI (NCI/ADR-RES ovarian) | TGI (OVCAR-5 ovarian) | TGI (OVCAR-8 ovarian) | TGI (SF-268 CNS) | TGI (SF-295 CNS) | TGI (SK-MEL-5 melanoma) | TGI (SK-OV-3 ovarian) | TGI (SNB-19 CNS) | TGI (SR leukemia) | TGI (TK-10 renal) | TGI (UACC-62 melanoma)
CCN1CCC(O)(c2ccc(O)cc2)C(C(=O)c2ccc(O)cc2)C1 (stereo not given) | 37.9 µM | > 100 µM | > 100 µM | 37.5 µM | 64.9 µM | 33.8 µM | 10.9 µM | 31.1 µM | 44.4 µM | 71 µM | 35.6 µM | > 100 µM | > 100 µM | > 100 µM | 22.7 µM | > 100 µM | > 100 µM | 43.4 µM | 31.5 µM | 30.9 µM
O=[N+]([O-])C(=C/c1cccs1)/C(=C\c1cccs1)[N+](=O)[O-] | 2.93 µM | 0.139 µM | 5.39 µM | 3.28 µM | 6.13 µM | > 100 µM | 7.72 µM | 0.864 µM | 3.52 µM | 5.4 µM | 7.21 µM | 8.06 µM | 10.4 µM | 4.92 µM | 2.94 µM | 8.04 µM | 5.16 µM | 0.987 µM | 7.76 µM | 2.53 µM
